Columns and labels:
Test in all cases: HotSpot kinase assay
Conditions in all cases: read-out: % Enzyme Activity (relative to DMSO control), 10 uM
[1] = biological target: AXL (Homo sapiens, UniProt P30530)
Description: (§1) Additionally, a 10-dose dilution series of staurosporine and other enzyme-appropriate compounds were included as positive control inhibitors.

[2] = biological target: OSR1/OXSR1 (Homo sapiens, UniProt O95747)
Description: as §1

[3] = biological target: DAPK1 (Homo sapiens, UniProt P53355)
Description: as §1

[4] = biological target: IRR/INSRR (Homo sapiens, UniProt P14616)
Description: as §1

[5] = biological target: FES/FPS (Homo sapiens, UniProt P07332)
[6] = biological target: FMS (Homo sapiens, UniProt P07333)
Description: as §1

[7] = biological target: BTK (Homo sapiens, UniProt Q06187)
Description: as §1

[8] = biological target: SNRK (Homo sapiens, UniProt Q9NRH2)
Description: as §1

[9] = biological target: BRK (Homo sapiens, UniProt Q13882)
Description: as §1

[10] = biological target: EIF2AK3 (Homo sapiens, UniProt Q9NZJ5)
Description: as §1

[11] = biological target: NEK5 (Homo sapiens, UniProt Q6P3R8)
Description: as §1

[12] = biological target: CDK1/cyclin E (Homo sapiens, UniProt P06493)
[13] = biological target: Haspin (Homo sapiens, UniProt Q8TF76)
[14] = biological target: LCK2/ICK (Homo sapiens, UniProt Q9UPZ9)
Description: as §1

[15] = biological target: AMPK (A2/B1/G3) (Homo sapiens, UniProt P54646)
Description: as §1

[16] = biological target: IRAK1 (Homo sapiens, UniProt P51617)
Description: as §1

[17] = biological target: NEK6 (Homo sapiens, UniProt Q9HC98)
Description: as §1

[18] = biological target: RSK3 (Homo sapiens, UniProt Q15349)
Description: as §1

[19] = biological target: c-MER (Homo sapiens, UniProt Q12866)
Description: as §1

[20] = biological target: KSR1 (Homo sapiens, UniProt Q8IVT5)
Description: as §1

[21] = biological target: DMPK (Homo sapiens, UniProt Q09013)
Description: as §1

[22] = biological target: TBK1 (Homo sapiens, UniProt Q9UHD2)
Description: as §1

[23] = biological target: HIPK3 (Homo sapiens, UniProt Q9H422)
[24] = biological target: CDK14/cyclin Y (PFTK1) (Homo sapiens, UniProt O94921)
Description: as §1

[25] = biological target: LRRK2 (Homo sapiens, UniProt Q5S007)
Description: as §1

[26] = biological target: MAK (Homo sapiens, UniProt P20794)
Description: as §1

[27] = biological target: TAK1 (Homo sapiens, UniProt O43318)
Description: as §1

[28] = biological target: ALK5/TGFBR1 (Homo sapiens, UniProt P36897)
Description: as §1

[29] = biological target: PAK5 (Homo sapiens, UniProt Q9P286)
Description: as §1

[30] = biological target: MKK6 (Homo sapiens, UniProt P52564)
Description: as §1

[31] = biological target: PKN3/PRK3 (Homo sapiens, UniProt Q6P5Z2)
[32] = biological target: JNK2 (Homo sapiens, UniProt P45984)
Description: as §1

[33] = biological target: FER (Homo sapiens, UniProt P16591)
[34] = biological target: GRK7 (Homo sapiens, UniProt Q8WTQ7)
Description: as §1

[35] = biological target: AMPK(A1/B1/G1) (Homo sapiens, UniProt Q13131)
Description: as §1

[36] = biological target: SNARK/NUAK2 (Homo sapiens, UniProt Q9H093)
Description: as §1

[37] = biological target: RIPK2 (Homo sapiens, UniProt O43353)
[38] = biological target: LYN (Homo sapiens, UniProt P07948)
Description: as §1

[39] = biological target: LYN B (Homo sapiens, UniProt P07948)
[40] = biological target: EPHA4 (Homo sapiens, UniProt P54764)
Description: as §1

Chain of LYN (P07948 whole entry): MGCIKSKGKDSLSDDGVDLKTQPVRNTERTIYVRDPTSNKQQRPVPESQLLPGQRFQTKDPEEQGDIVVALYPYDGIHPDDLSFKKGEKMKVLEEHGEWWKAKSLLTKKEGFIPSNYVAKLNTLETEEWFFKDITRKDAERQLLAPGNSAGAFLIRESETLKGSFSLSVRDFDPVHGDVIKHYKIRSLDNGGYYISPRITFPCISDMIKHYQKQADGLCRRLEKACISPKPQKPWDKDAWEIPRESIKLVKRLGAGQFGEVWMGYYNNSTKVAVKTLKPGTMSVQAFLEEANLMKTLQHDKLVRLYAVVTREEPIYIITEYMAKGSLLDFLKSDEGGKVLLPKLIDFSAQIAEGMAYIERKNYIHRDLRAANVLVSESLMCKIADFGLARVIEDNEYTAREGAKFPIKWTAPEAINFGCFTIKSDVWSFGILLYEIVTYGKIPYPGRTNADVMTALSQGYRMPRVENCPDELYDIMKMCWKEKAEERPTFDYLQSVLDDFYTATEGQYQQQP
Chain of GRK7 (Q8WTQ7 whole entry): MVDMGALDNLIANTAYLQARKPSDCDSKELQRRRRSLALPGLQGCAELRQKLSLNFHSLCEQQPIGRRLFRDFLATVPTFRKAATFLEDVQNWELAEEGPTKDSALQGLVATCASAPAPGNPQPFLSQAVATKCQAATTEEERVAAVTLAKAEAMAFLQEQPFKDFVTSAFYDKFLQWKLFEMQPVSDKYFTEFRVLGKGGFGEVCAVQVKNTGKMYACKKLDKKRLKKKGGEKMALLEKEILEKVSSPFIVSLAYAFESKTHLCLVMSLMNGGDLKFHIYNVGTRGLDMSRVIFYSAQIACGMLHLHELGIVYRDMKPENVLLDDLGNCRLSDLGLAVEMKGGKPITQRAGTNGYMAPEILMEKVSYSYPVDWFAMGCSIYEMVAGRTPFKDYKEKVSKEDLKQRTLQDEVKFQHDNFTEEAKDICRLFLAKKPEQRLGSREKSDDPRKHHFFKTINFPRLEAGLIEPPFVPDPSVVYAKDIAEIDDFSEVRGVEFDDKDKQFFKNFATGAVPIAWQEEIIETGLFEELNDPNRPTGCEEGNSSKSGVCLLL
Chain of OSR1/OXSR1 (O95747 whole entry): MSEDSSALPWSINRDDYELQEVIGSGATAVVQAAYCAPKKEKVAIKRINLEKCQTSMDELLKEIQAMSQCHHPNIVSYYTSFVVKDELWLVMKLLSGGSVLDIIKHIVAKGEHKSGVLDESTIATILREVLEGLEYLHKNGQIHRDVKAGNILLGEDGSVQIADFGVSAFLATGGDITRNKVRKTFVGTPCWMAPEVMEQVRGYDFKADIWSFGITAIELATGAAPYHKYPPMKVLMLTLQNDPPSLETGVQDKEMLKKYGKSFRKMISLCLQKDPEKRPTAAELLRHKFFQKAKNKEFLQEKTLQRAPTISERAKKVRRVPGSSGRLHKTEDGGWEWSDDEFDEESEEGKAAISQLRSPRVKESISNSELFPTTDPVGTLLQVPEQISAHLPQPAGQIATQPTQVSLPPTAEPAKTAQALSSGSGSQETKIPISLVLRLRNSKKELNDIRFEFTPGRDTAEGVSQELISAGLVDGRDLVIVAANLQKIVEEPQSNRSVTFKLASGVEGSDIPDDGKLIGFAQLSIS
Chain of AXL (P30530 26-894): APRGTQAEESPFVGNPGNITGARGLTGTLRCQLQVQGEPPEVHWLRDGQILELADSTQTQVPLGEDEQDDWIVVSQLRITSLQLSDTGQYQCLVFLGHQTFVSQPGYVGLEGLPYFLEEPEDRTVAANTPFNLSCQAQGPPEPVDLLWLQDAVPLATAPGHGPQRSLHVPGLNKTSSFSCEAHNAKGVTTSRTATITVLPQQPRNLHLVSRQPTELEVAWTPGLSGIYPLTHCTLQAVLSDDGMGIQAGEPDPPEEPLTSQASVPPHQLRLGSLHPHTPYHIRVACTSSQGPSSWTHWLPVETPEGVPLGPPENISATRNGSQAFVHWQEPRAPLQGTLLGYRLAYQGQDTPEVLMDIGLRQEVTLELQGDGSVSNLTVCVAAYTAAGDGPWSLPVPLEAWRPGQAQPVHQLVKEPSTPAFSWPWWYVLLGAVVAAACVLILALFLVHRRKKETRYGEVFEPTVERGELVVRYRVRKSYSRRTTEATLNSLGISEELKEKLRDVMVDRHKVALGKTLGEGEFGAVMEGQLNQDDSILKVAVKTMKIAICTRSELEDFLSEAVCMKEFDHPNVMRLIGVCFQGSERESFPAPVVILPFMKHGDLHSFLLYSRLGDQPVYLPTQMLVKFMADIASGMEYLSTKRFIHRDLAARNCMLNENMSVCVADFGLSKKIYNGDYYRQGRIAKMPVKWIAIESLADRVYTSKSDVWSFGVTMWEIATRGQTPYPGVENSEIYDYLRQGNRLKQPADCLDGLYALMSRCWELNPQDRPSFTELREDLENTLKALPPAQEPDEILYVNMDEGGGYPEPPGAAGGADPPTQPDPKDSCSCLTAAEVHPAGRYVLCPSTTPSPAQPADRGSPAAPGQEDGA
Chain of PKN3/PRK3 (Q6P5Z2 whole entry): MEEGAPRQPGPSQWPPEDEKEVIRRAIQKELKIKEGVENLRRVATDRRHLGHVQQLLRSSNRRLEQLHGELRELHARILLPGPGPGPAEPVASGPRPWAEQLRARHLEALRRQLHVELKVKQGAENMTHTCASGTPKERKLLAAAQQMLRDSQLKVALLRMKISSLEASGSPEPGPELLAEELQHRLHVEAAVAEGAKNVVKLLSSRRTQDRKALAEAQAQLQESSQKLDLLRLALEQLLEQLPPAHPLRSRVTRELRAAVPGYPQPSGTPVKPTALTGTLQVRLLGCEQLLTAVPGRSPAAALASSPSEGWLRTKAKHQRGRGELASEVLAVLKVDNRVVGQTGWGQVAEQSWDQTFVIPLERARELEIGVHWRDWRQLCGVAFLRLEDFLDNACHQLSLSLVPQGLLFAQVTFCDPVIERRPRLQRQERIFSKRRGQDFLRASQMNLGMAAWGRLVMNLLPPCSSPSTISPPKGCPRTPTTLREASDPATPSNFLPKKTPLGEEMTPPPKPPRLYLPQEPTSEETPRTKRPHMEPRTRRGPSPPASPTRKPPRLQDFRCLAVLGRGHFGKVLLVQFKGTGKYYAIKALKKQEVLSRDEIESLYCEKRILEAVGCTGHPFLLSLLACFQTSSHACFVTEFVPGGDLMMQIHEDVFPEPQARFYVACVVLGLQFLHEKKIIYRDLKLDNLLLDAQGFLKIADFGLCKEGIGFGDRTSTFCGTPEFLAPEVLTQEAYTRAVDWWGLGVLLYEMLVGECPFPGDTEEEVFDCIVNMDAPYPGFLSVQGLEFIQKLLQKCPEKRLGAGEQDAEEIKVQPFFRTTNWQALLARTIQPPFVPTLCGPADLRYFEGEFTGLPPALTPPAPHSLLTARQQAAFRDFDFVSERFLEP
Chain of LYN B (P07948 1-491 isoform P07948-2): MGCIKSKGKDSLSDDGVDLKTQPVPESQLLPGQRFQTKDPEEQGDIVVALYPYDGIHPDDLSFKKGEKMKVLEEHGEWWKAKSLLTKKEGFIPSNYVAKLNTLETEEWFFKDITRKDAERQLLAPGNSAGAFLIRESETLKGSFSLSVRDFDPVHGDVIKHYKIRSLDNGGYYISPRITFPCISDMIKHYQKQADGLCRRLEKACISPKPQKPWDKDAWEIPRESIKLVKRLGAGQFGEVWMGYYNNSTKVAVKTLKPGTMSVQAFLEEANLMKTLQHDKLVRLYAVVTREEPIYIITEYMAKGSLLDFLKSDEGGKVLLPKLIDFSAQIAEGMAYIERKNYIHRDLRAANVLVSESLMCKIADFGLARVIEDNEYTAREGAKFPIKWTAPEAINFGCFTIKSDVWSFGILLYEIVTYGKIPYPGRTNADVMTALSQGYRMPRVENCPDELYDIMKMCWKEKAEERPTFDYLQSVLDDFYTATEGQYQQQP
Chain of BTK (Q06187 whole entry): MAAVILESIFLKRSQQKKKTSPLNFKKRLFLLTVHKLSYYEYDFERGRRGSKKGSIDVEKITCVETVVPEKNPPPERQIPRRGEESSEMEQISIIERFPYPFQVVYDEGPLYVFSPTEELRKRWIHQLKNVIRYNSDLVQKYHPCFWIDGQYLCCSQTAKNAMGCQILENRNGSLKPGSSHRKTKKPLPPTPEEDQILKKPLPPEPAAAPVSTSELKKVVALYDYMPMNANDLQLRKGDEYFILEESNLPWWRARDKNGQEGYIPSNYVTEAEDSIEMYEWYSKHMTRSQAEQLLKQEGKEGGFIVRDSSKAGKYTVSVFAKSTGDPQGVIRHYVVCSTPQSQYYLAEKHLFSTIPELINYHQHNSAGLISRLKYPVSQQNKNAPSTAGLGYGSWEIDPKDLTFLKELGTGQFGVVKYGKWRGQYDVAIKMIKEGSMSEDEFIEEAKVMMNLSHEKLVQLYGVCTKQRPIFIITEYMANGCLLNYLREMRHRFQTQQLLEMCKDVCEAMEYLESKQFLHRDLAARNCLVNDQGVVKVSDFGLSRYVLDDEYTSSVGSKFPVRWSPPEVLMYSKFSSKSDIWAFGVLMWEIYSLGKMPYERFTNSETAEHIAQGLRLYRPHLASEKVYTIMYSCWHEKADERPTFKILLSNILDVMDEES
Chain of JNK2 (P45984 whole entry): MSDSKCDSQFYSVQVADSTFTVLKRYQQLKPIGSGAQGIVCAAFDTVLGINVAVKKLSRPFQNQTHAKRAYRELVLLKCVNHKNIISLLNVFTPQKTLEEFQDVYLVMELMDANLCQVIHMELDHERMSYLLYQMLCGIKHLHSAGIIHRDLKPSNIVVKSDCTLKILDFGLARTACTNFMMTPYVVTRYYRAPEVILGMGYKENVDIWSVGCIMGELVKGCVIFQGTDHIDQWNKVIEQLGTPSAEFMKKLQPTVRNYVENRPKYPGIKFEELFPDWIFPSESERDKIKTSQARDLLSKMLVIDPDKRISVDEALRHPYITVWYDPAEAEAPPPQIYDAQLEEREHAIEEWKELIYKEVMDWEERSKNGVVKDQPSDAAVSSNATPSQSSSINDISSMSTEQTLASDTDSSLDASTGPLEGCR

In the case of `C#C[C@@](C)(c1ccc(Cl)cc1)c1csc(NC(=O)c2c(F)cc(N3CCNCC3)cc2F)n1` (stereo in doubt) [DF-003], the remaining activity at 10 µM [1] was 47.9%, the remaining activity at 10 µM [2] was 48.8% and the remaining activity at 10 µM [3] was 62.8%. The remaining activity at 10 µM [4] was 66.3%, the remaining activity at 10 µM [5] was 71.1% and the remaining activity at 10 µM [6] was 75.7%. It also gave a remaining activity at 10 µM [7] of 76.8%, a remaining activity at 10 µM [8] of 80.5% and a remaining activity at 10 µM [9] of 81.2%. It also gave a remaining activity at 10 µM [10] of 81.9%, a remaining activity at 10 µM [11] of 83.4% and a remaining activity at 10 µM [12] of 83.6%. It also gave a remaining activity at 10 µM [13] of 85.7%, a remaining activity at 10 µM [14] of 86.9% and a remaining activity at 10 µM [15] of 87.3%. The remaining activity at 10 µM [16] was 88%, the remaining activity at 10 µM [17] was 88.5% and the remaining activity at 10 µM [18] was 88.8%. For the same compound, the remaining activity at 10 µM [19] was 89.5%, the remaining activity at 10 µM [20] was 91.5% and the remaining activity at 10 µM [21] was 94.6%. It also gave a remaining activity at 10 µM [22] of 95.4%, a remaining activity at 10 µM [23] of 96.7% and a remaining activity at 10 µM [24] of 98.8%. For the same compound, the remaining activity at 10 µM [25] was 99.2%, the remaining activity at 10 µM [26] was 100% and the remaining activity at 10 µM [27] was 102%. The remaining activity at 10 µM [28] was 103%, the remaining activity at 10 µM [29] was 104% and the remaining activity at 10 µM [30] was 105%. For the same compound, the remaining activity at 10 µM [31] was 107%, the remaining activity at 10 µM [32] was 107% and the remaining activity at 10 µM [33] was 113%. It also gave a remaining activity at 10 µM [34] of 114%, a remaining activity at 10 µM [35] of 119% and a remaining activity at 10 µM [36] of 124%. The remaining activity at 10 µM [37] was 125%, the remaining activity at 10 µM [38] was 137% and the remaining activity at 10 µM [39] was 143%. For the same compound, the remaining activity at 10 µM [40] was 161%.
